Test results as given in ChEMBL document CHEMBL1136548, “1,3,4 Trisubstituted pyrrolidine CCR5 receptor antagonists bearing 4-aminoheterocycle substituted piperidine side chains” (Bioorg Med Chem Lett, 2003).

Columns and labels:
[1] = molecular target: T1, C-C chemokine receptor type 5 (Homo sapiens, UniProt P51681); assay: Compound tested for inhibiting the displacement of 125-I labeled MIP-alpha from CCR5 receptor expressed on CHO cell membranes at 1000 nM
Target sequence in this assay (P51681 whole entry, looked up): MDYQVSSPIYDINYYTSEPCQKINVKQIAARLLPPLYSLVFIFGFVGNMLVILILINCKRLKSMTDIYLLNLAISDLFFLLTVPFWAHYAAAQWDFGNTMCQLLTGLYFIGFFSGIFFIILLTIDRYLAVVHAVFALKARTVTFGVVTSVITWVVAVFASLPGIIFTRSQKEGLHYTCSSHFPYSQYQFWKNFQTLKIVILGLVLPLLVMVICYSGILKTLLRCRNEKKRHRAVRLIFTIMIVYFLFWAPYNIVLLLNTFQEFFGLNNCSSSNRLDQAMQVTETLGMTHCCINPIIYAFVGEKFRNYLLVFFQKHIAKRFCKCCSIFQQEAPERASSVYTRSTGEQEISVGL

[2] = molecular target: T1, C-C chemokine receptor type 5; assay: Displacement inhibition of 125-I labeled MIP-alpha from CCR5 receptor expressed on CHO cell membranes
Target sequence in this assay (P51681 whole entry): as the sequence (P51681 whole entry, looked up) above

[3] = Maximum plasma concentration was evaluated in rat; format: ADME, organism-based
[4] = Half life was evaluated in rat; format: ADME, organism-based; conditions: in vivo
[5] = Bioavailability in rat; format: ADME, organism-based; conditions: in vivo
[6] = Pharmacokinetic parameter expressed as plasma clearance in rat; format: ADME, organism-based; conditions: read-out: Clp
[7] = molecular target: T1, C-C chemokine receptor type 5; assay: Inhibition over 48 hr of BAL strain HIV infection of HeLa Magi cells expressing CCR5; format: functional, cell-based
Target sequence in this assay (P51681 whole entry, looked up): as above

[8] = Tested for antiviral activity in peripheral blood mononuclear cells (PBMC); format: functional
[9] = molecular target: T1, C-C chemokine receptor type 5; assay: Inhibition over 48 hr of BAL strain HIV infection of HeLa Magi cells expressing CCR5; Not active; format: functional, cell-based
Target sequence in this assay (P51681 whole entry): as the sequence (P51681 whole entry, looked up) above

[10] = molecular target: T1, C-C chemokine receptor type 5; assay: Inhibition over 48 hr of BAL strain HIV infection of HeLa Magi cells expressing CCR5; not active; format: functional, cell-based
Target sequence in this assay (P51681 whole entry): as the sequence (P51681 whole entry, looked up) above

SMILES	IC50 [2] [nM]	Cmax [3] [nM]	bioavailability [5] [%]	clearance [6] [mL/min/kg]	also measured
CCCCCCN(c1ccccn1)C1CCN(C[C@H]2CN(C(=O)C3CCCCC3)C[C@@H]2c2ccccc2)CC1	–	–	–	–	inhibition [1]: 64%
C=CCN(c1ncccn1)C1CCN(C[C@H]2CN(C(=O)C3CCCCC3)C[C@@H]2c2ccccc2)CC1	12	–	–	–	–
O=C(C1CCCCC1)N1C[C@H](CN2CCC(N(CC3CC3)c3ccccn3)CC2)[C@@H](c2ccccc2)C1	9	–	–	–	–
CCCN(c1ccccn1)C1CCN(C[C@H]2CN(C(=O)c3ccccc3Cl)C[C@@H]2c2ccccc2)CC1	14	–	–	–	–
CCCN(c1ncc(F)cn1)C1CCN(C[C@H]2CN([C@H](CC3CCC3)C(=O)O)C[C@@H]2c2cccc(F)c2)CC1	0.4	–	–	–	–
CCCN(c1nccc(C(F)(F)F)n1)C1CCN(C[C@H]2CN([C@H](CC3CCC3)C(=O)O)C[C@@H]2c2cccc(F)c2)CC1	1.2	177	25	13	half-life [4]: 1.5 h
CCCN(c1ccncn1)C1CCN(C[C@H]2CN([C@H](CC3CCC3)C(=O)O)C[C@@H]2c2cccc(F)c2)CC1	1.2	–	–	90	half-life [4]: 0.9 h
CCCN(c1cccnc1)C1CCN(C[C@H]2CN([C@@H](C(=O)O)C3CCCCC3)C[C@@H]2c2ccccc2)CC1	5	19	8	106	–
CCCN(c1cncnc1)C1CCN(C[C@H]2CN([C@H](CC3CCC3)C(=O)O)C[C@@H]2c2cccc(F)c2)CC1	1.7	28	8	81	half-life [4]: 0.3 h
CCCN(c1ncccn1)C1CCN(C[C@H]2CN([C@@H](C(=O)O)C3CCCCC3)C[C@@H]2c2ccccc2)CC1	6.6	49	8	17	–
C=CCN(C(=O)OCc1ccc([N+](=O)[O-])cc1)C1CCN(C[C@H]2CN(C(=O)c3ccccc3Cl)C[C@@H]2c2ccccc2)CC1	–	–	–	–	IC90 [7]: 1 nM; IC95 [8]: 31 nM
CCCN(c1nccc(OC)n1)C1CCN(C[C@H]2CN([C@H](CC3CCC3)C(=O)O)C[C@@H]2c2cccc(F)c2)CC1	0.8	–	–	–	–
CCCN(c1ncccn1)C1CCN(C[C@H]2CN([C@H](CC3CCC3)C(=O)O)C[C@@H]2c2cccc(F)c2)CC1	1.8	256	29	28	half-life [4]: 1.1 h
CCCN(c1ccccn1)C1CCN(C[C@H]2CN([C@@H](C(=O)O)C3CCCCC3)C[C@@H]2c2ccccc2)CC1	3.9	53	20	53	–
CCCN(c1ncc(C(F)(F)F)cn1)C1CCN(C[C@H]2CN([C@H](CC3CCC3)C(=O)O)C[C@@H]2c2cccc(F)c2)CC1	0.5	433	72	9	half-life [4]: 2.8 h
C=CCN(c1cccnc1)C1CCN(C[C@H]2CN(C(=O)C3CCCCC3)C[C@@H]2c2ccccc2)CC1	23	–	–	–	–
CCCN(c1ccccn1)C1CCN(C[C@H]2CN(C(=O)N3CCCC3)C[C@@H]2c2ccccc2)CC1	9	–	–	–	–
CCN(c1ncccn1)C1CCN(C[C@H]2CN([C@H](CC3CCC3)C(=O)O)C[C@@H]2c2cccc(F)c2)CC1	1.5	210	33	26	half-life [4]: 1.1 h
CCCN(c1ncccn1)C1CCN(C[C@H]2CN([C@@H](C(=O)O)C3CCCCC3)C[C@@H]2c2cccc(F)c2)CC1	1.6	140	20	13	–
C=CCN(c1ccccc1)C1CCN(C[C@H]2CN(C(=O)C3CCCCC3)C[C@@H]2c2ccccc2)CC1	42	–	–	–	IC50 [9]: Not Active
O=C(O)[C@@H](CC1CCC1)N1C[C@H](CN2CCC(N(CC3CC3)c3ncccn3)CC2)[C@@H](c2cccc(F)c2)C1	1.1	–	–	28	half-life [4]: 0.7 h
C=CCN(c1ccncc1)C1CCN(C[C@H]2CN(C(=O)C3CCCCC3)C[C@@H]2c2ccccc2)CC1	66	–	–	–	IC50 [10]: Not Active
CCCN(c1ccccn1)C1CCN(C[C@H]2CN(C(=O)C3CCCCC3)C[C@@H]2c2ccccc2)CC1	12	–	–	–	–
O=C(C1CCCCC1)N1C[C@H](CN2CCC(N(Cc3ccccc3)c3ccccn3)CC2)[C@@H](c2ccccc2)C1	–	–	–	–	inhibition [1]: 78%
C=CCN(c1ccc(C(F)(F)F)cn1)C1CCN(C[C@H]2CN(C(=O)C3CCCCC3)C[C@@H]2c2ccccc2)CC1	21	–	–	–	–
CCCN(c1ccccn1)C1CCN(C[C@H]2CN(C(=O)C3CCC3)C[C@@H]2c2ccccc2)CC1	10	–	–	–	–
C=CCN(c1ccccn1)C1CCN(C[C@H]2CN(C(=O)C3CCCCC3)C[C@@H]2c2ccccc2)CC1	6	–	–	–	–
